Test results reported in PMC10252845, “Identification and Characterization of Novel ACE Inhibitory and Antioxidant Peptides from Sardina pilchardus Hydrolysate” (Foods, 2023).
Where a SMILES comes first, the peptide text is derived from it.

Columns and labels:
[1] = Digestive stability in artificial intestinal fluid; type: in vitro ADME; conditions: 37 °C, 2.0 h
Excerpt: (§1) Raw sardines (S. pilchardus) were purchased from Xiangtai Fisheries Co., Ltd. (Haikou, Hainan, China). ACE (from rabbit lung) and N-Hippuryl-His-Leu (HHL) were purchased from Sigma Chemicals Co., Ltd. (St. Louis, MO, USA). Dispase (enzyme activity 200 U/mg) was purchased from Adamas Chemicals Co., Ltd. (Shanghai, China). Alkaline protease (enzyme activity 200 U/mg) and borate buffer solution (BBS, pH8.4, containing 0.1 M H3BO3 and 0.025 M Na2B4O7) were purchased from Shanghai Yuanye Biotechnology Co., Ltd. (Shanghai, China). Trifluoroacetic acid (TFA), formic acid (FA), and acetonitrile (ACN) were obtained from Thermo Fisher Scientific Co., Ltd. (Waltham, MA, USA). The materials used for HPLC analysis were of HPLC grade, and all other reagents were of analytical grade. Artificial gastric fluid (10 g/L pepsin) and artificial intestinal fluid (10 g/L pancreatic enzyme) were purchased from Guangzhou Testing Technology Co., Ltd. (Guangzhou, China).
Peptides were quantified using HPLC and InertSustain C18 (5 μm, 4.6 × 250 mm). For FIGR, HPLC analysis conditions were as follows: the UV wavelength was constant at 228 nm, the mobile phase was 0.1% TFA/15% ACN in water, the flow rate was 1 mL/min, and the injection volume was 10 μL. For rest peptides, the mobile phase was 0.1% TFA/25% ACN in water, and the other conditions were the same as FIGR.
The peptide solutions of 0.10, 0.25, 0.50, 1.00, and 1.50 mg/mL were prepared precisely, and the peak areas of the peptides at different concentration conditions were determined. The peak area was plotted as the vertical coordinate and the concentration as the horizontal coordinate to find out the regression equation.
In total, 50 μL of the 10 mg/mL peptide solution was mixed with 450 μL of artificial gastric fluid or artificial intestinal fluid in a water bath at 37 °C for 2.0 h. Then, digestion was stopped in a water bath at 90 °C for 5 min, and the method for determining the peptide content was mentioned in Section 2.10.1. Peptide preservation rate was calculated as (3) Peptide Preservation Rate=Peptide content after treatment/Peptide content before treatment × 100,

ACE (from rabbit lung) = target: T1, ACE (from rabbit lung) (Oryctolagus cuniculus, UniProt P12822); experiment: In vitro ACE inhibitory activity assay (HHL substrate, hippuric acid by HPLC); type: biochemical; conditions: synthetic peptides; read-out: IC50 for ACE inhibition (converted)
T1 construct: ACE (from rabbit lung); purchased Sigma Chemicals Co., Ltd. (St. Louis, MO, USA); host or cells: rabbit lung (tissue of origin)
T1 sequence (P12822 34-1310): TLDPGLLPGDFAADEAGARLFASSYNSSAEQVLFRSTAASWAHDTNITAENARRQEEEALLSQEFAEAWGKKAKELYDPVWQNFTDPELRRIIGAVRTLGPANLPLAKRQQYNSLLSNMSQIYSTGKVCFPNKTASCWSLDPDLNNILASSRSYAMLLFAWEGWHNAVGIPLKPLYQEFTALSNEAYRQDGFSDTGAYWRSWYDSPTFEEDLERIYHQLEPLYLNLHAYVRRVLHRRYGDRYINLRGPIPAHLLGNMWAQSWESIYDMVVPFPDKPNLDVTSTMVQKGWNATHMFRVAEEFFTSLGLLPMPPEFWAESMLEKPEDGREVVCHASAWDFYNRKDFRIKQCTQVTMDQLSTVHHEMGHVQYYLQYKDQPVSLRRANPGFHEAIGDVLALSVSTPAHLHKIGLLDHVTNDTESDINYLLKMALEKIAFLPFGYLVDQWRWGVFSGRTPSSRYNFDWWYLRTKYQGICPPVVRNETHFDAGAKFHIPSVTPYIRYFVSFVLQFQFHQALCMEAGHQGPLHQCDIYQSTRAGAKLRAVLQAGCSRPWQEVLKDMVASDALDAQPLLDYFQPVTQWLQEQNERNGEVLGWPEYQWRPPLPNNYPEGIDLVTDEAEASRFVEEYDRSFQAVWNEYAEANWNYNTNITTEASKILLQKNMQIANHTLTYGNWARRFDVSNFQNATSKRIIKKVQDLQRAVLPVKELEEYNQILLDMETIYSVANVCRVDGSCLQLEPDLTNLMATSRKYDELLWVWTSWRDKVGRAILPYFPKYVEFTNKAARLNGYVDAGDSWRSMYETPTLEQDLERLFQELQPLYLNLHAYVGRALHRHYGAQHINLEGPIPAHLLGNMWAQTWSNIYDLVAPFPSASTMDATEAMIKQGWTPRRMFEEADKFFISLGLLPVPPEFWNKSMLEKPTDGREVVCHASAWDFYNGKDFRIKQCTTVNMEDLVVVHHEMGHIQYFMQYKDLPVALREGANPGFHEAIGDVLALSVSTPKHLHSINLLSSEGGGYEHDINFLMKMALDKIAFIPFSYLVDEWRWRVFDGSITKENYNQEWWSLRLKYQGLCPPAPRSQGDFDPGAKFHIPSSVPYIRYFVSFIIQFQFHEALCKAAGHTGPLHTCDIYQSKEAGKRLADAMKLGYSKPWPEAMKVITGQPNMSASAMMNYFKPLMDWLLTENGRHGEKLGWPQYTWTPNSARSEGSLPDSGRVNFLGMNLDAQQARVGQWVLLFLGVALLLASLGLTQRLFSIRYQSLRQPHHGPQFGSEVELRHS
Excerpt: as §1
The ACE inhibitory activity assay was determined according to a previous report with some modifications. HHL was dissolved in BBS to make a solution with a concentration of 5 mmol/L. The ACE was dissolved in BBS at a concentration of 0.06 U/mL. The reaction system was as follows: 20 μL of 0.06 U/mL ACE solution and 40 μL of sample solution or control (BBS) was added. After 5 min in a water bath at 37 °C, 50 μL of 5 mM HHL was added and incubated at 37 °C for 1 h. At the end of the incubation, 50 μL of […] was added to terminate the reaction. 500 μL water was added to the reaction system. Hippuric acid (HA) was quantified after being released from the system using HPLC and InertSustain C18 (5 μm, 4.6 × 250 mm). HPLC analysis conditions were as follows: the UV wavelength was constant at 228 nm, the mobile phase was 0.1% TFA/25% ACN in water, the flow rate was 1 mL/min, and the injection volume was 10 μL. The ACE inhibition activity was calculated by the following equation:(1) ACE Inhibition Activity=∆A−∆B/∆A × 100, where ΔA represented the peak area of HA in the control group; ΔB represented the peak area of the sample group.
All experiments were performed in triplicate (except for the molecular docking results), and data were reported as mean ± SD (n ≥ 3). An ANOVA test using SPSS 26.0 (SPSS Corporation, Chicago, IL, USA) was used to analyze the experimental data. The IC50 value was defined as the half concentration of the peptide required to inhibit the ACE activity, and the IC50 of the ACE inhibitory peptides was determined by calculating the ACE inhibition rate at various sample concentrations using the SPSS 26.0 probit regression model.

ACE = conditions: cited from earlier work
[2] = ABTS+ scavenging activity; conditions: positive control 10 μg/mL
Method: The 2,2′-Azinobis(3-ethylbenzothiazoline-6-sulfonic acid Ammonium Salt (ABTS) is commonly utilized as a stable free radical source in experiments. It is oxidized by potassium persulfate to produce an ABTS+ radical cation, which has a blue-green hue and absorbs light at 734 nm. When antioxidants are added, the free radical cations are reduced to the colorless ABTS form.
The ABTS+ was generated by mixing 7 mM ABTS and 4.09 mM potassium persulfate in the same volume, and the mixture was kept in the dark at room temperature for 12 h before use. The sample (1 mg/mL) group added sample 0.5 mL with 1 mL of ABTS+ solution. Control group was the same as the sample group, except that the sample was replaced with deionized water. Blank group was added deionized water 0.5 mL with 1 mL of ABTS+ solution. After incubation at room temperature for 6 min, the absorbance was tested at 734 nm. The positive control was 10 μg/mL glutathione (GSH). The sample’s concentration of 1 mg/mL falls within the linear range of the sample’s ABTS scavenging ability. (5) ABTS+Scavenging Activity=(1 − A1−A2/A3) × 100, where A1 is absorbance of sample group, A2 is absorbance of control group, and A3 is absorbance of blank group.

[3] = DPPH radical scavenging activity; conditions: positive control 10 μg/mL
Method: The 2,2-diphenyl-1-picrylhydrazyl (DPPH) is a stable free radical with a distinct purple color and absorbs light at 517 nm. Antioxidants added to the DPPH solution lead to a reduction in the DPPH radical to a non-radical form, resulting in a decrease in the solution’s absorbance. […] This principle of DPPH radical scavenging is commonly utilized for evaluating the antioxidant capacity of various substances, such as peptides.
Sample (1 mg/mL) group was aliquots of samples being mixed 1:1 (v/v) with 0.1 mmol/L DPPH (in ethanol absolute); control group was aliquots of samples being mixed 1:1 (v/v) with ethanol absolute; and blank group was aliquots of ethanol absolute being mixed 1:1 (v/v) with 0.1 mmol/L DPPH (in ethanol absolute). The mixture was shaken and kept for 40 min at room temperature and protected from light. The radical scavenging activity of DPPH radical was determined by measuring the absorbance at 517 nm. […] In this study, the sample concentration was 1 mg/mL, which was determined to be within the linear range of the concentration of the sample and its DPPH scavenging ability. The ability of the sample to scavenge DPPH radical was calculated according to the following equation:(4) DPPH Radical Scavenging Activity=(1 − Ai−Aj/A0) × 100, where Ai is absorbance of sample group, Aj is absorbance of control group, and A0 is absorbance of blank group.

[4] = Hydroxyl radical scavenging activity (salicylic acid); conditions: positive control 10 μg/mL
Method: The hydroxyl radical (·OH) is a free radical that comprises an oxygen atom and a hydrogen atom (·OH). The principle behind measuring hydroxyl radical scavenging activity involves the reaction between the hydroxyl radical and salicylic acid, which produces 2, 3-dihydroxybenzoic acid that can be quantified by measuring the absorbance at 510 nm.
The 1 mL of sample (1 mg/mL) was mixed with 1 mL of 4.5 mmol/L of ferrous sulfate and 1 mL of 30% H2O2 (v/v). The reaction mixture was standing for 10 min after vortexing. Then, 1 mL of 4.5 mmol/L salicylic acid was added and subsequently vortexed. After a water bath at 37 °C for 30 min, the absorbance of the mixture was measured at 510 nm (As). For the control, deionized water was added instead of salicylic acid (Ac). Vitamin C (Vc) was used as a positive control at 10 μg/mL. Hydroxyl radical scavenging activity was calculated as follows:(6) Hydroxyl Radical Scavenging Activity=(1 − Ac−As/Ac) × 100,

[5] = Fe2+-chelating ability (ferrozine); conditions: positive control 10 μg/mL
Method: When Fe^2+ and ferrozine are combined, they form a stable magenta-colored complex. The presence of chelators in the solution can cause them to bind with the Fe^2+ ions, thereby preventing the formation of the Fe^2+-ferrozine complex. As a result, the amount of Fe^2+-ferrozine complex in the solution decreases, leading to a decrease in the absorbance of the solution at 562 nm.
The sample (1 mg/mL) group was a 1 mL sample mixed with 3.7 mL deionized water and 0.1 mL of FeCl2 (2 mmol/L) and 0.2 mL of ferrozine (5 mmol/L). The mixture was protected from light and kept at room temperature for 10 min prior to measuring the absorbance at 562 nm. Control group contained everything, except it used deionized water instead of sample, and blank group used deionized water instead of FeCl2 (2 mmol/L). […] The chelating ability was calculated according to the following equation:(7) Fe^2+-chelating ability=(1 − A1−A2/A3) × 100, where A1 is absorbance of sample group, A2 is absorbance of blank group, and A3 is absorbance of control group.

Molecule | Retention rate after intestinal digestion [1] | IC50 (ACE (from rabbit lung)) [µM] | also measured
CC(C)C[C@H](NC(=O)[C@H](CCCNC(=N)N)NC(=O)[C@H](CCC(N)=O)NC(=O)[C@@H](N)Cc1ccccc1)C(=O)O [FQRL] (H-FQRL-OH; N-terminus and C-terminus assumed) | 25.62% ± 2.01 |  | 
CC(C)C[C@H](NC(=O)[C@@H](N)CCCCN)C(=O)N[C@@H](Cc1ccccc1)C(=O)O [KLF] (H-Lys-Leu-Phe-OH; N-terminus and C-terminus assumed) | 88.92% ± 2.60 | 2190 | 
RWDISQPY |  |  | ACE inhibition pattern (ACE): Competitive
CC[C@H](C)[C@H](NC(=O)[C@@H](N)Cc1ccccc1)C(=O)N[C@@H](CC(C)C)C(=O)N[C@@H](CCCNC(=N)N)C(=O)O [FILR] (H-FILR-OH; N-terminus and C-terminus assumed) | 86.23% ± 1.60 |  | 
AEYLCEAC |  |  | IC50 (ACE): 4290 µM
CC(C)C[C@H](NC(=O)[C@H](Cc1ccccc1)NC(=O)[C@@H](N)CCCCN)C(=O)O [KFL] (H-Lys-Phe-Leu-OH; N-terminus and C-terminus assumed) | 73.36% ± 0.86 | 1500 | 
CC[C@H](C)[C@H](NC(=O)[C@@H](N)Cc1ccccc1)C(=O)NCC(=O)N[C@@H](CCCNC(=N)N)C(=O)O [FIGR] (H-FIGR-OH; N-terminus and C-terminus assumed) | 50.78% ± 0.77 | 1220 | 
N[C@@H](CCC(=O)N[C@@H](CS)C(=O)NCC(=O)O)C(=O)O [GSH, Glutathione] |  |  | ABTS scavenging capacity [2]: 9.01% ± 0.69; DPPH scavenging capacity [3]: 33.25% ± 1.44
CC(C)C[C@H](NC(=O)[C@H](C)NC(=O)[C@H](CCCNC(=N)N)NC(=O)[C@@H](N)Cc1ccccc1)C(=O)O [FRAL] (H-FRAL-OH; N-terminus and C-terminus assumed) | 10.83% ± 0.44 | 1310 | 
O=C1O[C@H]([C@@H](O)CO)C(O)=C1O [Vc, Vitamin C] |  |  | Hydroxyl radical scavenging ability [4]: 9.39% ± 0.54
O=C([O-])CN(CCN(CC(=O)O)CC(=O)O)CC(=O)[O-].[Na+].[Na+] [EDTA-2Na] |  |  | Fe2+ chelating capacity [5]: 28.81% ± 1.13
